In US7550459B2, “Tetrahydroquinoline analogues as muscarinic agonists” (Acadia Pharmaceuticals, Inc., priority 2001, dated 2009):
Read-outs that look alike come from different tables or passages of the source.

What was measured:
[1] = target: T1, M2 muscarinic receptor (Homo sapiens, UniProt P08172); assay: Receptor Selection and Amplification (R-SAT) assay, cloned M2 receptor; assay type: cell-based; parameters: M2 Eff: scale not given here; details: second table (COMPOUND ID series)
T1 construct: expressed in transfected cells
T1 sequence (P08172 1-466): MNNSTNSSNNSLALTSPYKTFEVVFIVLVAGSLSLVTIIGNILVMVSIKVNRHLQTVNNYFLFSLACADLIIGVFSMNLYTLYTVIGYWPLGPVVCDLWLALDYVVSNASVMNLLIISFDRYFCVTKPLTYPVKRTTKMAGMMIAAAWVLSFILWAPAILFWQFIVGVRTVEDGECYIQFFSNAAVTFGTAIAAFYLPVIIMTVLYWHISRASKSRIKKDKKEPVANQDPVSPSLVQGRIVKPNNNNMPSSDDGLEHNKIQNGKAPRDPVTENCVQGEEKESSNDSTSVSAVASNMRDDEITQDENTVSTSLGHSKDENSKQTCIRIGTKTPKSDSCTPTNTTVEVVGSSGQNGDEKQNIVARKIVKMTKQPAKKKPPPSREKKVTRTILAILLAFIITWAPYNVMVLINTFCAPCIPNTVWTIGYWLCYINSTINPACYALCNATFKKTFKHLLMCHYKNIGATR
Text: (§1) The EC50 for an agonist is intended to denote the concentration of a compound needed to achieve 50% of a maximal response seen in an in vitro assay such as R-SAT. For inverse agonists, EC50 is intended to denote the concentration of a compound needed to achieve 50% inhibition of an R-SAT response from basal, no compound, levels.
(§2) A particularly convenient functional assay system is the receptor selection and amplification assay (R-SAT assay) in U.S. Pat. No. 5,707,798, which describes a method of screening for bioactive compounds by utilizing the ability of cells transfected with receptor DNA, e.g., coding for the different muscarinic subtypes, to amplify in the presence of a ligand of the receptor. Cell amplification is detected as increased levels of a marker also expressed by the cells.
(§3) Receptor Selection and Amplification (R-SAT) assays were carried out using the cloned M1-M5 receptors essentially as described in: Brauner-Osborne H, Brann M R. Pharmacology of muscarinic acetylcholine receptor subtypes (m1-m5): high throughput assays in mammalian cells. Eur J Pharmacol Jan. 4, 1996;295(1):93-102, and Spalding T A, Trotter C, Skjaerbaek N, Messier T L, Currier E A, Burstein E S, Li D, Hacksell U, Brann M R. Discovery of an ectopic activation site on the M(1) muscarinic receptor. Mol Pharmacol. 2002 June;61(6):1297-302.

[2] = target: T2, M1 muscarinic receptor (Homo sapiens, UniProt P11229); assay: Receptor Selection and Amplification (R-SAT) assay, cloned M1 receptor; assay type: cell-based; parameters: M1 Eff: scale not given here; details: second table (COMPOUND ID series)
T2 construct: expressed in transfected cells
T2 sequence (P11229 1-460): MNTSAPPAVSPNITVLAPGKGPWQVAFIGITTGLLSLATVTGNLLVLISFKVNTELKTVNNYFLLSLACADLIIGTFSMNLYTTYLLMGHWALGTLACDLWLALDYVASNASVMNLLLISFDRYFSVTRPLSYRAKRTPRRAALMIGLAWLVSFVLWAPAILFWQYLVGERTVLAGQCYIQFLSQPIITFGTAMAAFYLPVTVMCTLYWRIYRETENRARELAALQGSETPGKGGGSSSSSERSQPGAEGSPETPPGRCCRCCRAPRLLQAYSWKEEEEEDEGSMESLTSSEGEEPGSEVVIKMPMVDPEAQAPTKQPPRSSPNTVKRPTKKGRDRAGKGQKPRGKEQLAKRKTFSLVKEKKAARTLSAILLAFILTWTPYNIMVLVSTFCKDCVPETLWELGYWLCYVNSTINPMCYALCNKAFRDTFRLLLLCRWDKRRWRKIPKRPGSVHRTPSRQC
Text: as §1, §2, §3

[3] = R-SAT, read-out: M2 pEC50 (converted)
[4] = R-SAT, read-out: M1 pEC50 (converted)

| M2 Eff ([1]; R-SAT) | EC50 [1, 3] [nM] | M1 Eff ([2]; R-SAT) | EC50 [2, 4] [nM] | SMILES | EC50 ([1]; M2 pEC50, R-SAT) [nM] | EC50 ([2]; M1 pEC50, R-SAT) [nM] |
| --- | --- | --- | --- | --- | --- | --- |
| 57 | 1000 | 94 | 50.1 | O=C1CCc2cc(F)c(F)cc2N1CCCN1CCC(OCC2CC2)CC1 [Compound 00262272, 1-[3-(4-Cyclopropylmethoxypiperidin-1-yl)propyl]-6,7-difluoro-3,4-dihydro-1H-quinolin-2-one] | – | – |
| 61 | 631 | 95 | 50.1 | O=C1COc2cc(F)c(F)cc2N1CCCN1CCC(OCC2CC2)CC1 [Compound 00262461, 4-[3-(4-Cyclopropylmethoxypiperidin-1-yl)propyl]-6,7-difluoro-4H-benzo[1.4]oxazin-3-one] | – | – |
| 73 | 501 | 98 | 63.1 | O=C1COc2cc(F)ccc2N1CCCN1CCC(OCC2CC2)CC1 [Compound 00262469, 4-[3-(4-Cyclopropylmethoxypiperidin-1-yl)propyl]-7-fluoro-4H-benzo[1,4]oxazin-3-one] | – | – |
| 53 | 794 | 96 | 63.1 | O=C1COc2ccc(F)cc2N1CCCN1CCC(OCC2CC2)CC1 [Compound 00262635, 4-[3-(4-Cyclopropylmethoxypiperidin-1-yl)propyl]-6-fluoro-4H-benzo[1.4]oxazin-3-one] | – | – |
| 40 | 1260 | 84 | 79.4 | O=C1COc2ccccc2N1CCCN1CCC(OCC2CC2)CC1 [Compound 00262922, 4-[3-(4-Cyclopropylmethoxypiperidin-1-yl)propyl]-4H-benzo[1.4]oxazin-3-one] | – | – |

| SMILES | M2 Eff ([1]; R-SAT) | EC50 [1, 3] [nM] | M1 Eff ([2]; R-SAT) | EC50 [2, 4] [nM] | EC50 ([1]; M2 pEC50, R-SAT) [nM] | EC50 ([2]; M1 pEC50, R-SAT) [nM] |
| --- | --- | --- | --- | --- | --- | --- |
| O=C1COc2cc(F)c(F)cc2N1CCCN1[C@@H]2CC[C@H]1C[C@@H](OCC1CC1)C2 [Compound 00262569, 4-[3-(3a-Cyclopropylmethoxy-8-azabicyclo[3.2.1]oct-8-yl)propyl]-6.7-difluoro-4H-benzo[1.4]oxazin-3-one] | 42 | – | 97 | – | 50.1 | 6.31 |
| O=C1COc2cc(F)ccc2N1CCCN1[C@@H]2CC[C@H]1C[C@@H](OCC1CC1)C2 [Compound 00262571, 4-[3-(3a-Cyclopropylmethoxy-8-azabicyclo[3.2.1]oct-8-yl)propyl]-7-fluoro-4H-benzo[1.4]oxazin-3-one] | 45 | – | 81 | – | 39.8 | 12.6 |
| O=C1CCc2cc(F)c(F)cc2N1CCCN1[C@@H]2CC[C@H]1C[C@@H](OCC1CC1)C2 [Compound 00262572, 1-[3-(3a-Cyclopropylmethoxy-8-aza-bicyclo[3.2.1]oct-8-yl)propyl]-6,7-difluoro-3,4-dihydro-1H-quinolin-2-one] | 31 | – | 82 | – | 200 | 10 |
| COCCC1CC2CCC(C1)N2CC(C)CN1C(=O)COc2ccccc21 [Compound 00263025, (R)-4-{3-[3a-(2-Methoxyethyl)-8-azabicyclo[3.2.1]oct-8-yl]-2-methylpropyl}-4H-benzo[1.4]oxazin-3-one] | 123 | – | 116 | – | 158 | 3.16 |
